Source: US20080064754A1, “Amino ion releasing hydrogen bonded molecule” (priority 2006, published 2008)

Legend:
[1] = cited from earlier work
inflammation = assay: Anti-inflammatory, anecdotal preliminary experiment; type: in vivo; settings: all forms of delivery
[2] = tested on: wounds, burns (of all degrees) and several types of chronic lesions; assay: Wound healing, anecdotal preliminary experiment; type: in vivo
laboratory mice = assay: LD-50 animal safety studies; type: in vivo; settings: oral feeding, intravenous infusion and inhalation, up to 50 percent liquid or 100 percent powder
Experimental: Applicant has tested the final reaction product in LD-50 animal (laboratory mice) studies. These studies were conducted with oral feeding, intravenous infusion and inhalation. […] (Applicant's testing facility was unable to kill the mice with very high concentrations (up to 50 percent liquid or 100 percent powder) of Applicant's Tri-Amino.

[3] = Hygroscopicity of the powder; type: physicochemical
Description: Tri-Amino is a hygroscopic powder and as such is a valuable additive to moisturizing cosmetics.

microcirculation = type: in vivo
Description: This acceleration of microcirculation has many positive benefits.

| Molecule | solubility in water [1] | anti-inflammatory qualities (inflammation) | healing of wounds, burns and chronic lesions [2] | lesions healed [2] | toxicity in LD-50 studies (laboratory mice) | hygroscopicity [3] | toxic side effects on acceleration of microcirculation (microcirculation; in vivo) | vaso-dilating qualities (microcirculation; topically or internally, anecdotal, preliminary) |
| --- | --- | --- | --- | --- | --- | --- | --- | --- |
| Nc1ccc(C(=O)O)cc1 [PABA, p-aminobenzoic acid] | slightly soluble in water |  |  |  |  |  |  |  |
| 2-amino 5-triaminoguanidovalericbenzoicdiacetate [Tri-Amino] |  | shown anti-inflammatory qualities | ability to aid and accelerate the healing of wounds, burns (of all degrees) and several types of chronic lesions | radiation burns (third degree with complete suppression of scar formation), squamous cell carcinoma, basal cell carcinoma, psoriasis, venous stasis ulcers, decubitus ulcers (bed sores), deep surgical wounding (with suppression of scar formation), oral & genital herpes | no toxicity what-so-ever | hygroscopic | without toxic side effects | exhibited vaso-dilating qualities |
